# Laboratory results published in patent US10562857B2 (AFASCI, Inc., priority 2015, dated 2020).
# Like-named read-outs stand apart in the source and are kept apart here.
# Key:
# Cardiac Na+ channels = target: T1, Cardiac Na+ channels (Homo sapiens, UniProt Q14524); assay: Cardiac sodium currents in human iPSC-derived cardiomyocytes; format: cell-based; conditions: for inhibition at 3 µM: values in brackets, read-out: Cardiac Na+ (%) inh. at 3 μM; for IC50: human iPSC cardiomyocytes
# T1 construct: host or cells: human iPSC-derived cardiomyocytes
# Procedure: Cardiac sodium channels play a critical role in heart contraction. Inhibition of these sodium channels could potentially cause severe unwanted side effects. Therefore the representative example compounds in Table 2 were tested in cardiac sodium channels. Cardiomyocytes derived from human induced pluripotent stem cells (iPSC-CM) were obtained from Axol Bioscience Ltd (Cambridge, UK). Cells were thawed and grown on matrigel coated glass coverslips in Cardiomyocyte Maintenance Medium (Axol Bioscience). […] The internal solution was composed (in mM) of 120 KF, 10 HEPES, 11 EGTA, 1 CaCl2, 1 MgCl2, 10 TEA-Cl (pH 7.2 adjusted with KOH). Sodium currents were recorded at a holding potential of −100 mV and depolarized to −20 mV. Cells were incubated with example compounds until currents reached a steady-state level. To determine IC50 values, example compounds were applied gradually from low to high concentrations. The current responses were normalized to the control, percent inhibition was calculated and a sigmoidal dose response curve was plotted to determine IC50 values as described above.
# Cav3.2 channel = target: T2, Cav3.2 channel (Homo sapiens, UniProt O95180); assay: Whole-cell patch clamp of T-type Cav3.2 channel expressed in HEK293 cells; format: cell-based
# T2 construct: expressed in transfected cells; host or cells: HEK-293, tetracycline inducible expression system (Invitrogen)
# [1] = Table 1, tested at at least 4 concentrations, read-out: IC50
# [2] = Table 3A, read-out: Cav3.2 IC50
# T1 sequence (Q14524 whole entry): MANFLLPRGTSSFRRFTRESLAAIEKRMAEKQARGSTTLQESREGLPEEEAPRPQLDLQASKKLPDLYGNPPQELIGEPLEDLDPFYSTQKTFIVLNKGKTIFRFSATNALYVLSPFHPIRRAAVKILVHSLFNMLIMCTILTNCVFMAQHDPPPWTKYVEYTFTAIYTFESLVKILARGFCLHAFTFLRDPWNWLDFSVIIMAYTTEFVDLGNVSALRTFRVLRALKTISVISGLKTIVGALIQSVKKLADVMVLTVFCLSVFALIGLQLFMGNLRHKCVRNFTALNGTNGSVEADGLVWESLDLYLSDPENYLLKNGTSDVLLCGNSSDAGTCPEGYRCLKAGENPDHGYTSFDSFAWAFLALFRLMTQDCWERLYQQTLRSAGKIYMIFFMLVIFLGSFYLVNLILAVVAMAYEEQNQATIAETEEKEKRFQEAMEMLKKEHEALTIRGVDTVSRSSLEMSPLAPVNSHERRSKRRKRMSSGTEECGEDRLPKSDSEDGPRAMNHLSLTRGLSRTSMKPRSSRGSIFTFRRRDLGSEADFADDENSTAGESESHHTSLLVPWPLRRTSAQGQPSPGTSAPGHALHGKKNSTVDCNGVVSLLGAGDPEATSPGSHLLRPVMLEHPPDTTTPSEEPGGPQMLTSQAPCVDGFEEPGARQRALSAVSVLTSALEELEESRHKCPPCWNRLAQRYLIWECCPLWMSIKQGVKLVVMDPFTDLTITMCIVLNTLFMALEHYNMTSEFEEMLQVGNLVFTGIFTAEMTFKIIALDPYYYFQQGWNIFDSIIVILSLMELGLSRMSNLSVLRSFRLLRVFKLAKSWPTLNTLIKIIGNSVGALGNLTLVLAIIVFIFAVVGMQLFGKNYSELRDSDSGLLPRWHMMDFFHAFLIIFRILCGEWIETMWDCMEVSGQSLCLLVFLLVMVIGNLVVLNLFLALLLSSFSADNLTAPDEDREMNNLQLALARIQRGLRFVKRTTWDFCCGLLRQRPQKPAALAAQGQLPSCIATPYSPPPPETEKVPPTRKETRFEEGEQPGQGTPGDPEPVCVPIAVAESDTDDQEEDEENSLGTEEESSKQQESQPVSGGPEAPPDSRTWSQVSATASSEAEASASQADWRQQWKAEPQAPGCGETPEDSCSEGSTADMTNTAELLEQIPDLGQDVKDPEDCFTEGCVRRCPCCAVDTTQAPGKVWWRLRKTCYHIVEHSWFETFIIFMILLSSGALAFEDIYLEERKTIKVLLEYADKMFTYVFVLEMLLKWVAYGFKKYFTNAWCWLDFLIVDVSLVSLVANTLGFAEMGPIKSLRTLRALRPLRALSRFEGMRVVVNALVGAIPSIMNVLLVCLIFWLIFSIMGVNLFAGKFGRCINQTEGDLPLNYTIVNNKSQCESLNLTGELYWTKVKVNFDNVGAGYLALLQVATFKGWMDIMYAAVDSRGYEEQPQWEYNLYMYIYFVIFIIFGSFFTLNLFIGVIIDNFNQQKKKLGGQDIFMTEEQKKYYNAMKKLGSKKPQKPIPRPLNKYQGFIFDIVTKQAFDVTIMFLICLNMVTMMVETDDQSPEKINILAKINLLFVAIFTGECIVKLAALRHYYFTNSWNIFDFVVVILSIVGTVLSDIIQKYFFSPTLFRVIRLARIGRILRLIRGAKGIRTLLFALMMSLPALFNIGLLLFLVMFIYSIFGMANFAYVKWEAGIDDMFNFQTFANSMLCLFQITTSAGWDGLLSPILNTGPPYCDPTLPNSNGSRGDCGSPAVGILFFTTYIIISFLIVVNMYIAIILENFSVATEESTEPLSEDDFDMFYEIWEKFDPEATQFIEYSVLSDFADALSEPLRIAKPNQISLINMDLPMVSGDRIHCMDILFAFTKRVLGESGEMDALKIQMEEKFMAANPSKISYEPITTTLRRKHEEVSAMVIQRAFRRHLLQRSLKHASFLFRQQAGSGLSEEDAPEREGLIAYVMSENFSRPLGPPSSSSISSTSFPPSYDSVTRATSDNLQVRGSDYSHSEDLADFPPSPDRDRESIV
# T2 sequence (O95180 whole entry): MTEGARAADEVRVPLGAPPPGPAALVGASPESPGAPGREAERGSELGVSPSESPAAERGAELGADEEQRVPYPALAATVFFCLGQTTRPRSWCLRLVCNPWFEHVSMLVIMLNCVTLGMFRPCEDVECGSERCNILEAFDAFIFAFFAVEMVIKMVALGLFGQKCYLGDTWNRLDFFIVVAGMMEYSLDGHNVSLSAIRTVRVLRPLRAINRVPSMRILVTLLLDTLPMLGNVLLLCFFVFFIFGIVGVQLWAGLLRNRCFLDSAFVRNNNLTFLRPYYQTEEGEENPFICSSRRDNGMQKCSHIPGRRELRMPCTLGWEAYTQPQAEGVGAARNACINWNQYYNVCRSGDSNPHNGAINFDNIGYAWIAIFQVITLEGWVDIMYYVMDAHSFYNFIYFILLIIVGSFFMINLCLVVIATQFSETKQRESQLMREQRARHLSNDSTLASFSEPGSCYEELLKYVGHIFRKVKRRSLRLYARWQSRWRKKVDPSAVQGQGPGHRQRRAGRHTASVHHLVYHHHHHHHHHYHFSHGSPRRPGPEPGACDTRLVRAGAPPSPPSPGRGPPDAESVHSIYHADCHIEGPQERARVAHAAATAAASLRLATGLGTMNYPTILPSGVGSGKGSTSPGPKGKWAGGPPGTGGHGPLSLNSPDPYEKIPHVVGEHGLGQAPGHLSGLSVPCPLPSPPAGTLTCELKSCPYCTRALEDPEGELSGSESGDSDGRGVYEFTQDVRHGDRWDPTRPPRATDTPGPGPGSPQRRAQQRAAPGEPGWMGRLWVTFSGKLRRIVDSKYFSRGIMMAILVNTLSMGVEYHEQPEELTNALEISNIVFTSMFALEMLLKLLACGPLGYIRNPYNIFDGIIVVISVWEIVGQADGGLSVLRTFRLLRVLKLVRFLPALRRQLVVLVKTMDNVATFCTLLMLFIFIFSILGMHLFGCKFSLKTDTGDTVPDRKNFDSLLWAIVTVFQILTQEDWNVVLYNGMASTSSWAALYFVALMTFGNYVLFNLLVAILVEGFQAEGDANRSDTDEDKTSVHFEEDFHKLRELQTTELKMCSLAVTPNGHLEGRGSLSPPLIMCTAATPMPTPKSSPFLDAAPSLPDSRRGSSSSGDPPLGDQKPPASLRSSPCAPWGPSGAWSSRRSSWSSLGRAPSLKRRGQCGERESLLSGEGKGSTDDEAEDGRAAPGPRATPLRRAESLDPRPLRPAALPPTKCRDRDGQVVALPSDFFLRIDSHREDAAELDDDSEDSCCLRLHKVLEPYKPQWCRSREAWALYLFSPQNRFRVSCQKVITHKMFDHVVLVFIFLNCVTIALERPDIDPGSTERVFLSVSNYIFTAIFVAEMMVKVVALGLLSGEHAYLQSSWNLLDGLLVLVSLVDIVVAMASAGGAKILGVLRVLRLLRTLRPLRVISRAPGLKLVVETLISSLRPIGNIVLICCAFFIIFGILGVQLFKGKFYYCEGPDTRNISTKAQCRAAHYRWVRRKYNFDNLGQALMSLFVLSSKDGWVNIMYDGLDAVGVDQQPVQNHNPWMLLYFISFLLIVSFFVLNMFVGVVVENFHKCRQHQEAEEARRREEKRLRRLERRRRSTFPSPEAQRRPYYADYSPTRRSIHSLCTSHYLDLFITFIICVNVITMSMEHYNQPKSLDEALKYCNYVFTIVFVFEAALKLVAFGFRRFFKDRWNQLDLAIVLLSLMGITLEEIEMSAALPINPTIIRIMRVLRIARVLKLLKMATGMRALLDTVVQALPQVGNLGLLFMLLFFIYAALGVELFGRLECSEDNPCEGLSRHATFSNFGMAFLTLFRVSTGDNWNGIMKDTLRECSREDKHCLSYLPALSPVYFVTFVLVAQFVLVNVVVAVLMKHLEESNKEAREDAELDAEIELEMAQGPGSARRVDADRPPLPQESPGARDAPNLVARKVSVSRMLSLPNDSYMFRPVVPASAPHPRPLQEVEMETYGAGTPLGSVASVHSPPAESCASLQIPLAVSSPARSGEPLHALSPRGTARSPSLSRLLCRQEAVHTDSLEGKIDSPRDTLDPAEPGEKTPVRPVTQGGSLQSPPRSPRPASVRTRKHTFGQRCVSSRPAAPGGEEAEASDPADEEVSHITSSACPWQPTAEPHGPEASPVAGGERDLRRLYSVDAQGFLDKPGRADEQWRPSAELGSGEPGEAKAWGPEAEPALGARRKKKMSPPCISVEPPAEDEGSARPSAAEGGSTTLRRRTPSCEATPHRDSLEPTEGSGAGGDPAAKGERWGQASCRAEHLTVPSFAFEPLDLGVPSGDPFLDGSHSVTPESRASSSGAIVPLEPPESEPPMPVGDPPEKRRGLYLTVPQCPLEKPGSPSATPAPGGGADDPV
Structure (SMILES),inhibition at 3 µM (Cardiac Na+ channels),IC50 (Cav3.2 channel; [1]),"IC50 (Cav3.2 channel; Table 2, read-out: Cav3.2 IC50)",IC50 (Cardiac Na+ channels),% Use-Dep (use-dependent drug action) (Cav3.2 channel; Table 3A),IC50 (Cav3.2 channel; [2]),IC50 (Cav3.2 channel; read-out: Cav3.2 IC50),IC50 (Cav3.2 channel; read-out: IC50)
"CC(C)(C)NC(=O)CN1CCC2(CC1)CC2C(=O)Nc1cc(F)cc(C(F)(F)F)c1 (stereo not drawn) [Example 141, 6-(2-(tert-Butylamino)-2-oxoethyl)-N-(3-fluoro-5-(trifluoromethyl)phenyl)-6-azaspiro[2.5]octane-1-carboxamide]",28%,180 nM,180 nM,–,–,–,–,–
"CC(C)(C)CCN1C[C@@H]2[C@@H](CNC(=O)c3cc(Cl)cc(Cl)c3)[C@@H]2C1 [ML218, 3,5-Dichloro-N-[[(1α,5α,6-exo,6α)-3-(3,3-dimethylbutyl)-3-azabicyclo[3.1.0]hex-6-yl]methyl]benzamide, reference compound]",–,–,310 nM,39800 nM,19.2%,310 nM,–,–
"O=C(Nc1nnc(-c2ccccc2)o1)c1ccc(Cl)s1 [Example 115, 5-Chloro-N-(5-phenyl-1,3,4-oxadiazol-2-yl)thiophene-2-carboxamide]",–,930 nM,–,–,–,–,–,–
"CC(C)(C)NC(=O)CN1CCC2(CC1)C[C@H]2C(=O)Nc1cc(C(F)(F)F)cc(C(F)(F)F)c1 (single isomer, unassigned) [Example 132, (R)—N-(3,5-Bis(trifluoromethyl)phenyl)-6-(2-(tert-butylamino)-2-oxoethyl)-6-azaspiro[2.5]octane-1-carboxamide or (S)—N-(3,5-Bis(trifluoromethyl)phenyl)-6-(2-(tert-butylamino)-2-oxoethyl)-6-azaspiro[2.5]octane-1-carboxamide]",–,–,–,51600 nM,–,–,140 nM,140 nM
"CC(C)(C)NC(=O)CN1CCC2(CC1)CC2NC(=O)c1cc(F)cc(Cl)c1 (stereo not drawn) [Example 17, N-(6-(2-(tert-Butylamino)-2-oxoethyl)-6-azaspiro[2.5]octan-1-yl)-3-chloro-5-fluorobenzamide]",–,240 nM,240 nM,–,–,–,–,–
"CC(C)(C)CCN1CCC2(CC1)C[C@H]2NC(=O)c1cc(C(F)(F)F)cc(C(F)(F)F)c1 (single isomer, unassigned) [Example 146, (R)—N-(6-(3,3-dimethylbutyl)-6-azaspiro[2.5]octan-1-yl)-3,5-bis(trifluoromethyl)benzamide or (S)—N-(6-(3,3-dimethylbutyl)-6-azaspiro[2.5]octan-1-yl)-3,5-bis(trifluoromethyl)benzamide]",–,70 nM,70 nM,27800 nM,–,–,–,–
"CC(C)(C)NC(=O)CN1CCC2(CC1)C[C@H]2NC(=O)c1cc(Cl)cc(Cl)c1 (single isomer, unassigned) [Example 57, (R)—N-(6-(2-(tert-Butylamino)-2-oxoethyl)-6-azaspiro[2.5]octan-1-yl)-3,5-dichlorobenzamide or (S)—N-(6-(2-(tert-Butylamino)-2-oxoethyl)-6-azaspiro[2.5]octan-1-yl)-3,5-dichlorobenzamide]",–,60 nM,60 nM,50900 nM,–,–,–,–
"CC(C)(C)CCN1CCC2(CC1)C[C@H]2NC(=O)c1cc(C(F)(F)F)ccc1Cl (single isomer, unassigned) [Example 147, (R)-2-Chloro-N-(6-(3,3-dimethylbutyl)-6-azaspiro[2.5]octan-1-yl)-5-(trifluoromethyl)benzamide or (S)-2-Chloro-N-(6-(3,3-dimethylbutyl)-6-azaspiro[2.5]octan-1-yl)-5-(trifluoromethyl)benzamide]",–,130 nM,130 nM,43000 nM,–,–,–,–
"CC(C)(C)NC(=O)CN1CCC2(CC1)C[C@H]2NC(=O)C12CC3CC(CC(C3)C1)C2 (single isomer, unassigned) [Example 145, N—((R)-6-(2-(tert-butylamino)-2-oxoethyl)-6-azaspiro[2.5]octan-1-yl)adamantane-1-carboxamide or N—((S)-6-(2-(tert-butylamino)-2-oxoethyl)-6-azaspiro[2.5]octan-1-yl)adamantane-1-carboxamide]",0%,140 nM,140 nM,–,–,–,–,–
"CC(C)(C)NC(=O)CN1CCC2(CC1)CC2NC(=O)c1cc(F)cc(Cl)c1 (single isomer, unassigned) [Example 128, (S)—N-(6-(2-(tert-Butylamino)-2-oxoethyl)-6-azaspiro[2.5]octan-1-yl)-3-chloro-5-fluorobenzamide or (R)—N-(6-(2-(tert-Butylamino)-2-oxoethyl)-6-azaspiro[2.5]octan-1-yl)-3-chloro-5-fluorobenzamide]",–,110 nM,90 nM,83500 nM,21.3%,89 nM,–,–
"CC(C)(C)NC(=O)CN1CCC2(CC1)C[C@H]2NC(=O)c1cc(F)cc(C(F)(F)F)c1 (single isomer, unassigned) [Example 130, (R)—N-(6-(2-(tert-Butylamino)-2-oxoethyl)-6-azaspiro[2.5]octan-1-yl)-3-fluoro-5-(trifluoromethyl)benzamide or (S)—N-(6-(2-(tert-Butylamino)-2-oxoethyl)-6-azaspiro[2.5]octan-1-yl)-3-fluoro-5-(trifluoromethyl)benzamide]",–,180 nM,180 nM,31400 nM,–,–,–,–
"CC(C)(C)CCN1CCC2(CC1)CC2NC(=O)c1cc(F)cc(Cl)c1 (stereo not drawn) [Example 28, 3-Chloro-N-(6-(3,3-dimethylbutyl)-6-azaspiro[2.5]octan-1-yl)-5-fluorobenzamide]",–,70 nM,70 nM,37200 nM,–,–,–,–
"CC(C)(C)NC(=O)CN1CCC2(CC1)C[C@H]2NC(=O)c1cc(C(F)(F)F)cc(C(F)(F)F)c1 (single isomer, unassigned) [Example 144, ((R)—N-(6-(2-(tert-butylamino)-2-oxoethyl)-6-azaspiro[2.5]octan-1-yl)-3,5-bis(trifluoromethyl)benzamide or (S)—N-(6-(2-(tert-butylamino)-2-oxoethyl)-6-azaspiro[2.5]octan-1-yl)-3,5-bis(trifluoromethyl)benzamide]",–,80 nM,80 nM,19200 nM,–,–,–,–
"CC(C)(C)NC(=O)CN1CCC2(CC1)C[C@H]2NC(=O)c1cc(F)cc(Cl)c1 (single isomer, unassigned) [Example 129, (R)—N-(6-(2-(tert-Butylamino)-2-oxoethyl)-6-azaspiro[2.5]octan-1-yl)-3-chloro-5-fluorobenzamide or (S)—N-(6-(2-(tert-Butylamino)-2-oxoethyl)-6-azaspiro[2.5]octan-1-yl)-3-chloro-5-fluorobenzamide]",–,870 nM,870 nM,–,–,–,–,–
"CC(C)(C)NC(=O)CN1CCC(CNC(=O)c2cc(F)cc(Cl)c2)CC1 [Z944, reference compound]",–,–,190 nM,21400 nM,17.6%,200 nM,–,–
